Measurements as given in patent US20250092383A1, “COMPOUNDS AND METHODS FOR FBXO22-MEDIATED PROTEIN DEGRADATION” (Northwestern University, priority 2023, published 2025).

What was measured:
FKBP12 and FBXO22 [1] = target: T1, FKBP12 and FBXO22 (Homo sapiens, UniProt P62942+Q8NEZ5, C227A/C228A); test: Coimmunoprecipitation of HA-FBXO22 with FLAG-FKBP12 (ternary complex); format: cell-based; settings: HEK293T cells, with MG132
T1 construct: expressed in transfected cells; host or cells: HEK293T
Description: (§1) FIGS. 4A-4C show 22-SLF induces the formation of a ternary complex involving 22-SLF, FKBP12 and FBXO22. […] The bar graph represents quantification of the immunoprecipitated HA-FBXO22 protein content compared to the HA-FBXO22 protein in whole cell lysates (WCL). Data are presented as the mean values (n=2 biological independent samples). […] Data are presented as the mean values (n=2 biological independent samples).
(§2) The formation of ternary complex by degraders with their target protein and E3 ligase drives the subsequent target degradation.

FKBP12 and FBXO22 [2] = target: T2, FKBP12 and FBXO22 (Homo sapiens, UniProt P62942+Q8NEZ5); test: as above; format: cell-based; settings: HEK293T cells, with MG132
T2 construct: expressed in transfected cells; host or cells: HEK293T
Description: as §1, §2

FKBP12 and FBXO22 [3] = test: as above; format: cell-based, human; settings: HEK293T cells, with MG132
Description: as §1, §2

FBXO22 = target: T3, FBXO22 (Homo sapiens, UniProt Q8NEZ5); test: Competitive cysteine-directed activity-based protein profiling (ABPP); format: binding
T3 construct: expressed in transfected cells; host or cells: HEK293T
T3 sequence (Q8NEZ5 1-403): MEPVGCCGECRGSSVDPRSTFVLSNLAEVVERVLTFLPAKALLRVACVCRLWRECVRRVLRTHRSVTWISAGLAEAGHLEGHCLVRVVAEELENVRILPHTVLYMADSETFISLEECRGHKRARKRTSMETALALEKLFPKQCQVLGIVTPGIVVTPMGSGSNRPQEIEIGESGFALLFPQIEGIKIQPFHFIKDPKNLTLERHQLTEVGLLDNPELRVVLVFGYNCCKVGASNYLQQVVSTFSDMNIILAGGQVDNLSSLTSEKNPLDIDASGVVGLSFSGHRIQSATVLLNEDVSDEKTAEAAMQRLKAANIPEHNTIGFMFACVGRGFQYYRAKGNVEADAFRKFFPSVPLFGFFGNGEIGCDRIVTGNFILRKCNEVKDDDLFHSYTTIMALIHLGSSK
Description: FIGS. 3A-3H show FBXO22 C227 and C228 are involved in 22-SLF-mediated degradation of FKBP12. […] Among 5,650 quantified IA-DTB-modified peptides, four cysteines were identified on FBXO22 (C83, C117, C228, and C365). […] Data are presented as the mean values (n=2 biological independent samples for DMSO treatment; n=3 biological independent samples for 22-SLF Treatment). […] The bag graph represents quantification of the FLAG-FKBP12/HSP90 protein content. Data are presented as mean values (n=2 biological independent samples). […] The bar graph represents quantification of the FLAG-FKBP12/HSP90 protein content. Data are presented as the mean values (n=2 biological independent samples).
To identify the cysteine residue(s) in FBXO22 engaged with 22-SLF, HA-FBXO22-expressing HEK293T cells were treated with either DMSO or 22-SLF (2 μM, 2 hours). Using competitive cysteine-directed activity-based protein profiling (ABPP), a chemical proteomics for the measurement of target engagement, the degree of blockade of iodoacetamide-desthiobiotin (IA-DTB)-modified cysteines on FBXO22 was quantified. From a pool of 5,650 quantified IA-DTB-modified peptides, four cysteines on FBXO22 (C83, C117, C228, and C365) (FIG. 3a) were identified, with approximately 20% of FBXO22 C228 being blocked by 22-SLF treatment (FIG. 3b), indicating the potential interaction with this cysteine by 22-SLF. […]

T2 sequence (P62942 2-108, one chain of several): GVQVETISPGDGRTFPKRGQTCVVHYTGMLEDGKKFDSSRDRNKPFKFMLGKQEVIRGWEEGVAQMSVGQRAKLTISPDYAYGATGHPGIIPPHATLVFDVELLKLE
T2 sequence (P63208 whole entry partner, one chain of several): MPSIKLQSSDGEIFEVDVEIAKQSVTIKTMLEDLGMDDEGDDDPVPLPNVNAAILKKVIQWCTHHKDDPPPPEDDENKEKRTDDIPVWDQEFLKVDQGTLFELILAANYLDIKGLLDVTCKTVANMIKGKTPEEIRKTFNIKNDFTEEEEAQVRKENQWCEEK
T1 sequence (P62942 2-108): as the sequence (P62942 2-108, one chain of several) above
T1 sequence (Q8NEZ5 whole entry C227A/C228A): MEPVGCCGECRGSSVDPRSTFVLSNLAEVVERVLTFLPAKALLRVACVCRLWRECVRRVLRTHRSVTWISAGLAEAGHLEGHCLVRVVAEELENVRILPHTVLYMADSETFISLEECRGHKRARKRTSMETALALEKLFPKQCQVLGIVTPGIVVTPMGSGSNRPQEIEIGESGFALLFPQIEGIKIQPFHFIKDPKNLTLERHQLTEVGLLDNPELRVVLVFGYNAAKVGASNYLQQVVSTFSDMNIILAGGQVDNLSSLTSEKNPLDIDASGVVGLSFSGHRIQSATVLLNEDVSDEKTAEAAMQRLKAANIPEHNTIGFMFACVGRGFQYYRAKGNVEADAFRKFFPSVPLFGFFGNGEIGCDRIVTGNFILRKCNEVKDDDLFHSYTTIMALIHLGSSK
T1 sequence (P63208 whole entry partner): as the sequence (P63208 whole entry partner, one chain of several) above

## CCC(C)(C)C(=O)C(=O)N1CCCC[C@H]1C(=O)O[C@H](CCc1ccc(OC)c(OC)c1)c1cccc(OCC(=O)NCCCOCCOCCOCCCN(C(=O)CCl)C(C(=O)NCc2ccccc2)c2nc3ccccc3s2)c1 (some centres unmarked) [22-SLF]
FKBP12 and FBXO22 [1]
  Ternary complex assembly, FBXO22 C227AC228A double mutant: nearly completely abolished
FKBP12 and FBXO22 [2]
  Ternary complex formation, FBXO22 wild type: HA-FBXO22 co-immunoprecipitated with FLAG-FKBP12
FKBP12 and FBXO22 [3]
  Ternary complex assembly, FBXO22 C227A or C228A single mutant: partially hindered
FBXO22; 2 μM, 2 hours, HA-FBXO22-expressing HEK293T cells
  Blockade of IA-DTB-modified FBXO22 C228: approximately 20%
FBXO22; FIG. 3b
  Engagement of FBXO22 C227: approximately 20%
